Test results reported in EP3072514A1, “Novel oral anticoagulants (NOACs) for preventing development and aggravation of atrial fibrillation” (Université Pierre et Marie Curie - Paris 6 (UPMC), priority 2015, dated 2016).

Legend:
Format in all cases: in vivo, Male OFA Sprague-dawley rats
paroxysmal AF = experiment: Duration of an AF episode induced by rapid stimulation of the left atrium with an esophageal electrode in I/R rats; conditions: 6 mg/kg/day
Text: • Figure 1 is a combination of two graphs showing left atrium (LA) area after one month of treatment with DTI Dabigatran (A) or S35792 (B). Vehicle (V) is 60% H2O/40% PEG 300 for dabigatran and saline for S35972. Treatment of rats started just after thoracotomy without (Sham) or with occlusion of left coronary artery followed by reperfusion (I/R). Results are presented as mean +/- S.E.M, *P<0.05, **P<0.01 and *** P<0.001 vs Sham; ^##P<0.01 and ^###P<0.001 vs untreated I/R. • Figure 2 is a combination of graphs showing left ventricular end-diastolic (LVED) diameter and fractional shortening (FS) after one month of treatment with Dabigatran (A) or S35792 (B). […] DTI plasma levels are quantified using LC-MS/MS. TT are expressed as mean +/- S.E.M with reference to the mean value of sham animals that underwent thoracotomy only. *** P<0.001 vs untreated I/R. • Figure 4 is a combination of three graphs showing left atrium (LA) area (A) and diameter (B) and left ventricle end-diastolic (LVED) diameter (C) after two months of treatment with S35972. […] LA area was measured by bidimensional echocardiography. LA and LVED diameters were measured in time-motion mode. […] AF duration is measured as the time between the end of the electric stimulation and the return to sinusoidal rhythm. […] Expression of mRNA was measured with real-time qPCR. […] Expression of mRNA was measured with real-time qPCR. […]

α-MHC = experiment: mRNA expression by real-time qPCR in atria and ventricle of I/R rats
Text: (§1) • Figure 1 is a combination of two graphs showing left atrium (LA) area after one month of treatment with DTI Dabigatran (A) or S35792 (B). Vehicle (V) is 60% H2O/40% PEG 300 for dabigatran and saline for S35972. Treatment of rats started just after thoracotomy without (Sham) or with occlusion of left coronary artery followed by reperfusion (I/R). […] Vehicle (V) is 60% H2O/40% PEG 300 for dabigatran and saline for S35972. Treatment of rats started just after thoracotomy without (Sham) or with occlusion of left coronary artery followed by reperfusion (I/R). Results are presented as mean +/- S.E.M. * P<0.05; ** P<0.001, *** P<0.001 vs Sham; #P<0.05 vs untreated I/R. • Figure 3 is a combination of two graphs showing thrombin time (TT), which reflects anticoagulant activity, and plasma concentrations of Dabigatran (A) and S35792 (B) in rats after throracotomy with occlusion of left coronary artery followed by reperfusion (I/R). Vehicle (V) is 60% H2O/40% PEG 300 for dabigatran and saline for S35972. Tests were carried out on blood collected by cardiac puncture at sacrifice (i.e. for Dabigatran, 90 minutes after last oral administration). DTI plasma levels are quantified using LC-MS/MS. TT are expressed as mean +/- S.E.M with reference to the mean value of sham animals that underwent thoracotomy only. *** P<0.001 vs untreated I/R. • Figure 4 is a combination of three graphs showing left atrium (LA) area (A) and diameter (B) and left ventricle end-diastolic (LVED) diameter (C) after two months of treatment with S35972. Treatment of rats started just after thoracotomy without (Sham) or with occlusion of left coronary artery followed by reperfusion (I/R). LA area was measured by bidimensional echocardiography. LA and LVED diameters were measured in time-motion mode. Results are presented as mean +/- S.E.M. *P<0.05, **P<0.01 and *** P<0.001 vs Sham; ^#P<0.05 ^###P<0.001 vs untreated I/R. • Figure 5 is a graph showing the impact of S35972 administration during two months on the duration of an episode of AF in rats undergone thoracotomy without (Sham) or with occlusion of left coronary artery followed by reperfusion (I/R). AF duration is measured as the time between the end of the electric stimulation and the return to sinusoidal rhythm. […] Rats undergone thoracotomy without (Sham) or with occlusion of left coronary artery followed by reperfusion (I/R). Expression of mRNA was measured with real-time qPCR. […] Expression of mRNA was measured with real-time qPCR. […] Expression of mRNA was measured with real-time qPCR. […] LA area was measured by bidimensional echocardiography. LVED and LA diameters were measured in time-motion mode. […] AF duration is measured as the time between the end of the electric stimulation and return to sinusoidal rhythm. […]

β-MHC = experiment: as above
Text: as §1

ANP = experiment: as above; conditions: 6 mg/kg/day, 2 months
Text: (§2) • Figure 1 is a combination of two graphs showing left atrium (LA) area after one month of treatment with DTI Dabigatran (A) or S35792 (B). Vehicle (V) is 60% H2O/40% PEG 300 for dabigatran and saline for S35972. Treatment of rats started just after thoracotomy without (Sham) or with occlusion of left coronary artery followed by reperfusion (I/R). Results are presented as mean +/- S.E.M, *P<0.05, **P<0.01 and *** P<0.001 vs Sham; ^##P<0.01 and ^###P<0.001 vs untreated I/R. • Figure 2 is a combination of graphs showing left ventricular end-diastolic (LVED) diameter and fractional shortening (FS) after one month of treatment with Dabigatran (A) or S35792 (B). Vehicle (V) is 60% H2O/40% PEG 300 for dabigatran and saline for S35972. Treatment of rats started just after thoracotomy without (Sham) or with occlusion of left coronary artery followed by reperfusion (I/R). Results are presented as mean +/- S.E.M. * P<0.05; ** P<0.001, *** P<0.001 vs Sham; #P<0.05 vs untreated I/R. • Figure 3 is a combination of two graphs showing thrombin time (TT), which reflects anticoagulant activity, and plasma concentrations of Dabigatran (A) and S35792 (B) in rats after throracotomy with occlusion of left coronary artery followed by reperfusion (I/R). Vehicle (V) is 60% H2O/40% PEG 300 for dabigatran and saline for S35972. Tests were carried out on blood collected by cardiac puncture at sacrifice (i.e. for Dabigatran, 90 minutes after last oral administration). DTI plasma levels are quantified using LC-MS/MS. TT are expressed as mean +/- S.E.M with reference to the mean value of sham animals that underwent thoracotomy only. *** P<0.001 vs untreated I/R. • Figure 4 is a combination of three graphs showing left atrium (LA) area (A) and diameter (B) and left ventricle end-diastolic (LVED) diameter (C) after two months of treatment with S35972. Treatment of rats started just after thoracotomy without (Sham) or with occlusion of left coronary artery followed by reperfusion (I/R). LA area was measured by bidimensional echocardiography. LA and LVED diameters were measured in time-motion mode. Results are presented as mean +/- S.E.M. *P<0.05, **P<0.01 and *** P<0.001 vs Sham; ^#P<0.05 ^###P<0.001 vs untreated I/R. • Figure 5 is a graph showing the impact of S35972 administration during two months on the duration of an episode of AF in rats undergone thoracotomy without (Sham) or with occlusion of left coronary artery followed by reperfusion (I/R). AF duration is measured as the time between the end of the electric stimulation and the return to sinusoidal rhythm. Results are presented as mean +/- S.E.M, *P<0.05 vs Sham; ^##P<0.01 vs untreated I/R, • Figure 6 is a combination of graphs showing the impact of treatments with 25 mg/kg/d dabigatran for 4 weeks and 6 mg/kg/d S35972 for 8 weeks on atrial (A) and ventricular (B) expression of myosin heavy chain (MHC) isoforms. Rats undergone thoracotomy without (Sham) or with occlusion of left coronary artery followed by reperfusion (I/R). Expression of mRNA was measured with real-time qPCR. Results are presented as mean +/- S.E.M. *P<0.05, **P<0.01 vs Sham; #P<0.05 vs untreated I/R. • Figure 7 is a combination of graphs showing the impact of 2 months S35972 administration on the expression of the hypertrophic markers, brain and atrial natriuretic peptides (BNP and ANP) in atria (A) and ventricle (B). Rats undergone thoracotomy without (Sham) or with occlusion of left coronary artery followed by reperfusion (I/R). Expression of mRNA was measured with real-time qPCR. Results are presented as mean +/- S.E.M. *P<0.05, ***P<0.001 vs Sham; #P<0.05, ##P<0.01 vs untreated I/R. • Figure 8 is a combination of graphs showing the impact of 2 months S35972 administration on the expression of fibrotic markers, plasminogen activator inhibitor 1 (PAI-1, A) and heparin-binding epidermal growth factor (HB-EGF, B) in atria and ventricle. Rats undergone thoracotomy without (Sham) or with occlusion of left coronary artery followed by reperfusion (I/R). […]

BNP = experiment: as above; conditions: 6 mg/kg/day, 2 months
Text: as §2

HB-EGF = experiment: as above; conditions: 2 months administration
Text: as §2

PAI-1 = experiment: as above; conditions: 2 months administration
Text: as §2

[1] = atrium, 6 mg/kg/day for 8 weeks post I/R
[2] = ventricle, 6 mg/kg/day post I/R

4-oxo-3-(2-pyridin-2-ylethylamino)-4,6,7,8-tetrahydro-pyrrolo[1,2-a]pyrazine-6-carboxylic acid 2-ethylcarbamoyl methoxy-benzylamide [S35972]
AF duration (paroxysmal AF; administered 1 month post I/R in rats with dilated atria): tends to decrease AF duration
duration of episode of paroxysmal AF (paroxysmal AF; eight weeks post I/R): decreases the duration of this episode of paroxysmal AF to the control values
expression of α-MHC (mRNA) in left atrium (α-MHC; [1]): without impacting the expression of α-MHC
expression of α-MHC (mRNA) in the ventricle (α-MHC; [2]): without significant impact on the expression of α-MHC
synthesis of β-MHC (mRNA) in left atrium (β-MHC; [1]): prevents the synthesis of β-MHC
synthesis of β-MHC (mRNA) in the ventricle (β-MHC; [2]): prevents the synthesis of β-MHC
expression of ANP (mRNA) in the atrium (ANP; atrium): does not impact its expression
synthesis of ANP (mRNA) in the ventricle (ANP; ventricle): significantly reduces its synthesis
synthesis of BNP (mRNA) in the atrium (BNP; atrium): prevents the synthesis of BNP
synthesis of BNP (mRNA) in the ventricle (BNP; ventricle): prevents the synthesis of BNP
induction of HB-EGF mRNA in atria (HB-EGF; atria): prevents the induction of HB-EGF mRNA
induction of HB-EGF mRNA in ventricles (HB-EGF; ventricles): prevents the induction of HB-EGF mRNA
mRNA expression of PAI-1 in atria (PAI-1; atria): has an inhibitory effect
mRNA expression of PAI-1 in ventricles (PAI-1; ventricles): inhibitory effect in atria only
